Legend:
[1] = Content of tacrolimus solvable in liquefied hydrofluoroalkane; type: physicochemical; settings: liquefied hydrofluoroalkane (HFA-134a, HFA-227)
[2] = Adsorptivity of tacrolimus to resinous material constituting valve part (FIG. 3); type: physicochemical
From the text: FIG. 3 illustrates the adsorptivity of the active ingredient contained in the aerosol composition to each sample resinous material soaked in the aerosol composition.
The axis of ordinates designates the ratio of (remaining) active ingredient in the aerosol composition to the initial active ingredient therein when the percentage of the initial active ingredient contained in the aerosol composition is 100%.
The aerosol composition used in the test of FIG. 3 contains a 0.025 wt % macrolide compound. To be concrete, the aerosol composition is a solution that contains 2.5 mg tacrolimus serving as the active ingredient, 10 ml liquefied hydrofluoroalkane (HFA-134a) serving as the propellant, and a little amount of lubricant normally used for metered dose inhalation.
In the test of FIG. 3, each of the sample resinous materials is formed into a circular shape having a 5 mm diameter (a 39 mm^2 surface area), similar to the form of first gasket 11. Each of the sample resinous materials is soaked in the aerosol composition solution under the condition of 75% relative humidity and 50° C. for a month. […]

content of the tacrolimus solvable in the liquefied hydrofluoroalkane [1] | ratio of (remaining) active ingredient in the aerosol composition to the initial active ingredient [2] | Molecule
not more than 0.15 wt % | – | C=CC[C@@H]1/C=C(\C)C[C@H](C)C[C@H](OC)[C@H]2O[C@@](O)(C(=O)C(=O)N3CCCC[C@H]3C(=O)O[C@H](/C(C)=C/[C@@H]3CC[C@@H](O)[C@H](OC)C3)[C@H](C)[C@@H](O)CC1=O)[C@H](C)C[C@@H]2OC [tacrolimus]
– | scarcely reduced | polyethylene
– | scarcely reduced | polypropylene

Source: patent publication US20060124903A1, “Aerosol preparation comprising sealed container and enclosed therein aerosol composition containing marcolide compound” (Astellas Pharma Inc., priority 2003, published 2006)
